Reference: patent US20240051952A1, “HMOX1 INDUCERS” (Mitobridge Inc., priority 2019, published 2024)

Experiments:
[1] = system: FTH1; test: FTH1 mRNA expression in HepG2 cells (Nanostring); assay type: cell-based, human; conditions: 24 hours treatment
Description: RNA Isolation and Quantification of Gene Expression
HepG2 cells were seeded at 250 k/well in 12-well tissue culture plates coated with collagen (collagen I, rat tail (thin plate coating); ENZO Life Sciences) for approximately 24 hours. The seeded cells were then treated with dose titration of the compound of Example 17 or dimethyl fumarate (DMF) (a Nrf2 activator; Fisher Scientific) via media change, with biological triplicates performed for each treatment. After approximately 24 hours of treatment, cells were visually inspected to confirm that no toxicity occurred with compound treatment. The treated cells were washed with PBS, aspirated, parafilmed and frozen at −80° C. prior to RNA isolation. RNA was isolated using Machery-Nagel isolation kit (NucleoSpin® RNA: catalog 740955.250) and then quantitated using ThermoFisher Nanodrop.
RNA was diluted for Nanostring gene expression analysis. The diluted RNA at an input of 200ng RNA was run on a Nanostring instrument, which was supported with nCounter® SPRINT Profiler System and nSolver4.0 Software, nCounter® SPRINT Cartridge, nCounter® SPRINT Reagent Pack, and nCounter© SPRINT Hybridization Buffer. Analysis was done manually using raw data obtained from nSolver4.0 Software. CLTC, POLR2A, RPL27 and TBP were used as reference genes for normalization. Data was graphed as fold change compared to DMSO treatment. […]

[2] = system: Human Heme Oxygenase-1 (HMOX-1); test: ELISA assay to measure human heme oxygenase-1 (HMOX-1) in HepG2 lysate; assay type: cell-based; conditions: fold change of human HMOX1 protein levels relative to DMSO control, HepG2
Outline: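 HO-1 protein quantified by chemiluminescent sandwich ELISA against a 2-fold standard series starting at 20 ng/ml. Samples were 1:20-diluted HepG2 lysates made in Triton X-100/EDTA buffer with protease inhibitors. Capture antibody coated at 8 μg/ml, detection antibody used at 200 ng/ml, room-temperature (20 °C) steps.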

- Maximum Fold induction [2]: 11-40
SMILES: Cn1c(Nc2nc3ccccc3o2)nc2cc(C(=O)NCCOCCO)ccc21 [Example 17, 2-(benzo[d]oxazol-2-ylamino)-N-(2-(2-hydroxyethoxy)ethyl)-1-methyl-1H-benzo[d]imidazole-5-carboxamide]
- FTH1 expression fold increase [1]: comparable fold increases
